Measurements taken from US20120035206A1, “PREPARATION AND APPLICATION OF NOVEL ANTIBACTERIAL AND ANTICANCER COMPOUNDS AND THEIR DERIVATIVES” (priority 2009, published 2012).
Values after ≈ are worked out from the molar mass of the structure shown.

Tests used:
Type in all cases: cell-based
Terchoderma = test: In vitro antibacterial (antifungal) test, two-fold dilution MIC; settings: Trichoderma, RPMI 1640, culture 2-7 days
C. albicans = test: as above; settings: Candida albicans, read-out: MIC C. albicas
S. schenekn = test: as above; settings: RPMI 1640, culture 2-7 days
gibberella = test: as above; settings: RPMI 1640, culture 2-7 days
C. glabrata = test: as above; settings: Nakaseomyces glabratus, RPMI 1640, culture 2-7 days
[1] = test system: Fusarium oxysporum vasinfectum; test: as above; settings: RPMI 1640, culture 2-7 days
C. parapsilosis = test: as above; settings: Lodderomyces parapsilosis, RPMI 1640, culture 2-7 days
C. tropicalis = test: as above; settings: Candida tropicalis, RPMI 1640, culture 2-7 days
C. neoformans = test: as above; settings: Cryptococcus neoformans, RPMI 1640, culture 2-7 days
M. gypseum = test: as above; settings: Nannizzia gypsea, RPMI 1640, culture 2-7 days
C. Krusei = test: as above; settings: Pichia kudriavzevii, RPMI 1640, culture 2-7 days
Setosphaeria turcica = test: as above; settings: Exserohilum turcicum, RPMI 1640, culture 2-7 days
FTC 133 = test: In vitro anticancer MTT experiment; settings: Homo sapiens, concentration 5 ug/ml, 48 h or 72 h, read-out: inhibition ratio FTC 133
Summary of the method: (§1)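 Reported inhibition ratio refers to 5 ug/ml compound, calculated from OD 570 nm against untreated-cell and medium-only references. MTT readout followed 48 h or 72 h drug exposure at 37° C., 5% CO2. Log-phase cells were plated at 6000-7000 per well in RPMI 1640 with 10% FCS.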

CRL-1469PANC-1 = test: In vitro anticancer MTT experiment; settings: concentration 5 ug/ml, 48 h or 72 h, read-out: inhibition ratio CRL-1469PANC-1
Summary of the method: as §1

L1210 = test: In vitro anticancer MTT experiment; settings: Mus musculus, concentration 5 ug/ml, 48 h or 72 h, read-out: inhibition ratio L1210
Summary of the method: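 Cells in RPMI 1640 with 10% fetal calf serum were seeded at 6000-7000 per well, rested 12 h at 37° C., then exposed to compound for 48 h or 72 h. MTT was read as OD at 570 nm. Inhibition ratio was derived against untreated and blank wells, with reported values taken at 5 ug/ml.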

AS24391 = test: In vitro anticancer MTT experiment; settings: concentration 5 ug/ml, 48 h or 72 h, read-out: inhibition ratio AS24391
Summary of the method: as §1

CRL-2233SNU-398 = test: In vitro anticancer MTT experiment; settings: concentration 5 ug/ml, 48 h or 72 h, read-out: inhibition ratio CRL-2233SNU-398
Summary of the method: as §1

B01092 = test: In vitro anticancer MTT experiment; settings: concentration 5 ug/ml, 48 h or 72 h, read-out: inhibition ratio B01092
Summary of the method: as §1

HTB-95637 = test: In vitro anticancer MTT experiment; settings: concentration 5 ug/ml, 48 h or 72 h, read-out: inhibition ratio HTB-95637
Summary of the method: as §1

CRL-1435PC-3 = test: In vitro anticancer MTT experiment; settings: concentration 5 ug/ml, 48 h or 72 h, read-out: inhibition ratio CRL-1435PC-3
Summary of the method: as §1

SGC7901 = test: In vitro anticancer MTT experiment; settings: Homo sapiens, SGC-7901, concentration 5 ug/ml, 48 h or 72 h, read-out: inhibition ratio SGC7901
Summary of the method: as §1

L428 = test: In vitro anticancer MTT experiment; settings: Homo sapiens, L-428, concentration 5 ug/ml, 48 h or 72 h, read-out: inhibition ratio L428
Summary of the method: as §1

A375 = test: In vitro anticancer MTT experiment; settings: Homo sapiens, A-375, concentration 5 ug/ml, 48 h or 72 h, read-out: inhibition ratio A375
Summary of the method: as §1

E. floccosum = test: In vitro antibacterial (antifungal) test, two-fold dilution MIC; settings: Epidermophyton floccosum, RPMI 1640, culture 2-7 days
HTB-94 = test: In vitro anticancer MTT experiment; settings: concentration 5 ug/ml, 48 h or 72 h, read-out: inhibition ratio HTB-94
Summary of the method: as §1

HTB-131MDA-MB-453 = test: In vitro anticancer MTT experiment; settings: concentration 5 ug/ml, 48 h or 72 h, read-out: inhibition ratio HTB-131MDA-MB-453
Summary of the method: as §1

HTB-38HT-29 = test: In vitro anticancer MTT experiment; settings: concentration 5 ug/ml, 48 h or 72 h, read-out: inhibition ratio HTB-38HT-29
Summary of the method: as §1

SMILES: Cc1ccc2c(c1)C(=O)/C(=C/Cl)CS2 [Compound 5, (Z)-3-(chloromethylene)-6-methylthiochroman-4-one]
- MIC (Terchoderma): 32 µg/mL (≈ 142 µM)
- MIC (C. albicans): 8 µg/mL (≈ 35.6 µM)
- MIC (S. schenekn): 8 µg/mL (≈ 35.6 µM)
- MIC (gibberella): 16 µg/mL (≈ 71.2 µM)
- MIC (C. glabrata): 2 µg/mL (≈ 8.9 µM)
- MIC [1]: 8 µg/mL (≈ 35.6 µM)
- MIC (C. parapsilosis): 8 µg/mL (≈ 35.6 µM)
- MIC (C. tropicalis): 32 µg/mL (≈ 142 µM)
- MIC (C. neoformans): 0.5 µg/mL (≈ 2.23 µM)
- MIC (M. gypseum): 4 µg/mL (≈ 17.8 µM)
- MIC (C. Krusei): 4 µg/mL (≈ 17.8 µM)
- MIC (Setosphaeria turcica): 8 µg/mL (≈ 35.6 µM)
- inhibition at 5 µg/mL (FTC 133): 60.2%
- inhibition at 5 µg/mL (CRL-1469PANC-1): 40.9%
- inhibition at 5 µg/mL (L1210): 87.6%
- inhibition at 5 µg/mL (AS24391): 49.8%
- inhibition at 5 µg/mL (CRL-2233SNU-398): 60.1%
- inhibition at 5 µg/mL (B01092): 58%
- inhibition at 5 µg/mL (HTB-95637): 76.6%
- inhibition at 5 µg/mL (CRL-1435PC-3): 55.6%
- inhibition at 5 µg/mL (SGC7901): 62.1%
- inhibition at 5 µg/mL (L428): 46.8%
- inhibition at 5 µg/mL (A375): 65.9%

SMILES: Cc1cc2c(cc1F)CS/C(=C\Br)C2=O [Compound 16, (Z)-3-(bromomethylene)-7-fluoro-6-methylisothiochroman-4-one]
- MIC (Terchoderma): 16 µg/mL (≈ 55.7 µM)
- MIC (C. albicans): 32 µg/mL (≈ 111 µM)
- MIC (S. schenekn): 8 µg/mL (≈ 27.9 µM)
- MIC (gibberella): 32 µg/mL (≈ 111 µM)
- MIC (C. glabrata): 4 µg/mL (≈ 13.9 µM)
- MIC (E. floccosum): 16 µg/mL (≈ 55.7 µM)
- MIC [1]: 16 µg/mL (≈ 55.7 µM)
- MIC (C. parapsilosis): 4 µg/mL (≈ 13.9 µM)
- MIC (C. tropicalis): 32 µg/mL (≈ 111 µM)
- MIC (C. neoformans): 4 µg/mL (≈ 13.9 µM)
- MIC (M. gypseum): 16 µg/mL (≈ 55.7 µM)
- MIC (C. Krusei): 32 µg/mL (≈ 111 µM)
- MIC (Setosphaeria turcica): 32 µg/mL (≈ 111 µM)
- inhibition at 5 µg/mL (FTC 133): 46.5%
- inhibition at 5 µg/mL (HTB-94): 63.2%
- inhibition at 5 µg/mL (CRL-1469PANC-1): 57.9%
- inhibition at 5 µg/mL (L1210): 85.9%
- inhibition at 5 µg/mL (AS24391): 57.8%
- inhibition at 5 µg/mL (B01092): 60.4%
- inhibition at 5 µg/mL (HTB-95637): 36%
- inhibition at 5 µg/mL (CRL-1435PC-3): 56.9%
- inhibition at 5 µg/mL (SGC7901): 56.7%
- inhibition at 5 µg/mL (L428): 43.1%
- inhibition at 5 µg/mL (HTB-131MDA-MB-453): 46.3%
- inhibition at 5 µg/mL (HTB-38HT-29): 48%
- inhibition at 5 µg/mL (A375): 30.5%

SMILES: OC1/C(=C/Cl)SCc2ccccc21 (centres unmarked) [Compound 20, (Z)-3-(chloromethylene)isothiochroman-4-ol]
- MIC (C. albicans): 16 µg/mL (≈ 75.2 µM)
- MIC (S. schenekn): 32 µg/mL (≈ 150 µM)
- MIC (gibberella): 16 µg/mL (≈ 75.2 µM)
- MIC (C. glabrata): 8 µg/mL (≈ 37.6 µM)
- MIC (E. floccosum): 16 µg/mL (≈ 75.2 µM)
- MIC (C. parapsilosis): 8 µg/mL (≈ 37.6 µM)
- MIC (C. tropicalis): 32 µg/mL (≈ 150 µM)
- MIC (C. neoformans): 16 µg/mL (≈ 75.2 µM)
- MIC (M. gypseum): 16 µg/mL (≈ 75.2 µM)
- MIC (C. Krusei): 32 µg/mL (≈ 150 µM)
- MIC (Setosphaeria turcica): 8 µg/mL (≈ 37.6 µM)
- inhibition at 5 µg/mL (FTC 133): 36.9%
- inhibition at 5 µg/mL (HTB-94): 45.7%
- inhibition at 5 µg/mL (CRL-1469PANC-1): 34.5%
- inhibition at 5 µg/mL (L1210): 80.3%
- inhibition at 5 µg/mL (AS24391): 49.8%
- inhibition at 5 µg/mL (CRL-2233SNU-398): 40.4%
- inhibition at 5 µg/mL (B01092): 46.9%
- inhibition at 5 µg/mL (HTB-95637): 56.2%
- inhibition at 5 µg/mL (CRL-1435PC-3): 45.5%
- inhibition at 5 µg/mL (SGC7901): 45.9%
- inhibition at 5 µg/mL (L428): 43.3%
- inhibition at 5 µg/mL (HTB-131MDA-MB-453): 25.8%
- inhibition at 5 µg/mL (HTB-38HT-29): 45.5%
- inhibition at 5 µg/mL (A375): 50.2%
